Measurements published in patent US8552017B2, “2-amino-3-sulphonyl-tetrahydro-pyrazolo[1,5-A]pyrido-pyrimidine antagonists of serotonin 5-HT6 receptors, methods for the production and use thereof” (priority 2008, dated 2013).
Counter-ions that a name gives are not always drawn.

Tests used:
[1] = biological target: T1, 5-HT6 receptor (Homo sapiens (Human), UniProt P50406); experiment: Antagonistic activity test towards 5-HT6 receptors (serotonin-induced intracellular cAMP, LANCE cAMP kit, HEK 293 cells); format: cell-based; conditions: read-out: IC50 in the setting of functional assay
Protocol: Antagonistic activity test of compounds of the general formulas 1 and 2 towards 5-HT6 receptors. Compounds of general formulas 1 and 2 were tested for their ability to prevent 5-HT6 receptors activation by serotonin. HEK 293 cells (kidney cells of human's embryo) with artificially expressed 5-HT6 receptor, activation of which by serotonin leads to increasing the concentration of intracellular cAMP were used. Intracellular cAMP content was determined using reagent kit LANCE cAMP (PerkinElmer) according to the method described by the manufacturer of the kit [http://las.perkinelmer.com/content/Manuals]. Effectiveness of compounds was estimated by their ability to reduce the content of intracellular cAMP induced by serotonin.

[2] = biological target: T1, 5-HT6 receptor; experiment: Competitive radioligand binding ([3H] Lysergic acid diethylamide) to serotonin 5-HT6 receptors, HeLa cell membranes
Protocol: Screening of the disclosed compounds for their potential ability to interact with serotonin 5-HT6 receptors was carried out by the method of radioligand binding. For this purpose membrane species were prepared from HeLa cells expressing recombinant human 5-HT6 receptors, by means of cells homogenization in glass homogenizer with subsequent separation of plasmatic membranes from cell nucli, mitochondria's and cell wreckages by differential centrifugation. Determination of tested compounds binding to 5-HT6 receptors was carried out according to the method described in [Monsma F J Jr, Shen Y, Ward R P, Hamblin M W and Sibley D R, Cloning and expression of a novel serotonin receptor with high affinity for tricyclic psychotropic drugs. Mol Pharmacol. 43:320-327, 1993]. […] Methiothepin was used as a positive control. Binding of the tested compounds with the receptor was determined by their ability to displace the radioligand and was expressed in percent of displacement. The percent of displacement was calculated according to the following equation:
[formula] wherein: TA—was overall radioactivity in the presence of radioligand only, CA—was radioactivity in the presence of radioligand and tested compound and NA—was radioactivity in the presence of radioligand and Serotonin (5 μM).

T1 sequence (P50406 whole entry): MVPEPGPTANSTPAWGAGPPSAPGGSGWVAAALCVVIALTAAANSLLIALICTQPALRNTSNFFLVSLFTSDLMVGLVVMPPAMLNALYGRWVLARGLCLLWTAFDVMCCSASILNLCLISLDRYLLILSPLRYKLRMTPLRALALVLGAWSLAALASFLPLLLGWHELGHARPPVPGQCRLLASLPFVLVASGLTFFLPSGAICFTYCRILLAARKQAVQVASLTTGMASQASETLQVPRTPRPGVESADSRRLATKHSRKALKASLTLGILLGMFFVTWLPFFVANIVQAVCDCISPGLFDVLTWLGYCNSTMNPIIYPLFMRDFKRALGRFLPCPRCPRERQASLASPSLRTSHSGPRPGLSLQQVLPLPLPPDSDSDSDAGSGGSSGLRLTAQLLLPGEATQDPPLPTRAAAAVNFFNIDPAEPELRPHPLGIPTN

SMILES	IC50 [1] [nM]	IC50 ([2]; 1.5 nM [3H] Lysergic acid diethylamide) [nM]	Ki ([2]; Ki=IC50/(1+[L]/KD)) [nM]
CNc1nn2c3c(cnc2c1S(=O)(=O)c1ccccc1)CN(C)CC3 [1.1(3), 2-methylamino-7-methyl-3-phenylsulfonyl-6,7,8,9-tetrahydropyrazolo[1,5-a]pyrido[4,3-e]pyrimidine]	29.7		
CNc1nn2c3c(c(C)nc2c1S(=O)(=O)c1ccccc1)CN(C)CC3 [1.1(4)•HCl]		1.48	0.685
